In brackets after ≈: the same amount, converted by molar mass. Where two headings read alike, the source gives them in different places.
Experiments:
C. auris 8977 = assay: Candida panel MIC, serial dilution in 96-well plates; type: cell-based, Candida auris
Procedure: (§1) The minimum inhibitory concentration of test compounds were determined in a panel of Candida species (see Table 4 below), using the a serial dilution method in 96-well plates using the following protocol.
(§2) Starter cultures of fungal strains to be tested were grown in 3 mL of RPMI 2% glucose media incubated at 37° C. with shaking at 200 rpm overnight. The culture media used was 900 mL H2O; 10.4 g RPMI 1640 (with L-glutamine and a pH indicator but without bicarbonate); 34.5 g MOPS and 18 g glucose. The pH of the media was adjusted to 7.0 with 1 M sodium hydroxide.
(§3) Solutions of the compound to be tested were prepared by dissolving the compound in DMSO and subsequently into media to the desired concentrations. […] The last two rows of each plate were control rows containing the culture media alone and the media plus fungi.
(§4) The fungi starter cultures were diluted 1:10 in water in cuvettes. This was then further diluted to an optical density (OD600) of 0.01 in media. 100 μL of the fungi was added to each well giving a starting concentration of fungus of 0.5-5×10^5/mL. One species of fungus was used on each plate. The plates were then held at 37° C. for 24 hours.
(§5) A plate reader was used to measure growth in each well at OD530 nm and the MIC was determined for each test compound. The MIC is defined as the lowest concentration giving rise to inhibition of ≥50% of that of the drug-free control well containing the fungus and media.
(§6) The Candida auris strains shown in Table 7 were either taken from the National Collection of Pathogenic Fungi (NCPF) or collected as part of ongoing surveillance studies. The strains were characterised as follows.

C. auris 8971 = assay: as above; type: cell-based, Candida auris
Procedure: as §1, §2, §3, §4, §5, §6

C. auris 8984 = assay: as above; type: cell-based, Candida auris
Procedure: as §1, §2, §3, §4, §5, §6

Candida auris TDG2506 = assay: microbe, parasite or virus in culture; type: cell-based; settings: Candidozyma auris
Procedure: as §1, §2, §3, §4, §5, §6

Candida auris TDG2211 = assay: microbe, parasite or virus in culture; type: cell-based; settings: Candidozyma auris
Procedure: as §1, §2, §3, §4, §5, §6

C. glabrata NCPF8018 = assay: Candida panel MIC, serial dilution in 96-well plates; type: cell-based, Candida glabrata; settings: Nakaseomyces glabratus
Procedure: as §1, §2, §3, §4, §5

C. parapsilosis NCPF3209 = assay: microbe, parasite or virus in culture; type: cell-based, Candida parapsilosis; settings: Lodderomyces parapsilosis
Procedure: as §1, §2, §3, §4, §5

C. krusei NCPF3876 = assay: microbe, parasite or virus in culture; type: cell-based, Candida krusei; settings: Pichia kudriavzevii
Procedure: as §1, §2, §3, §4, §5

C. albicans NCPF3281 = assay: Candida panel MIC, serial dilution in 96-well plates; type: cell-based, Candida albicans; settings: Candida albicans, NCPF3281; Table 4, common panel; 24 hours, ≥50% inhibition; read-out: MIC C. albicans NCPF3281
Procedure: as §1, §2
(§7) Solutions of the compound to be tested were prepared by dissolving the compound in DMSO and subsequently into media to the desired concentrations. 200 μL of compound solution was then added to the wells of the 96-well plate using a serial dilution method row-by row of the plate to give a compound concentration gradient across the plate of from 128 μg/mL to 0.25 μg/mL. The last two rows of each plate were control rows containing the culture media alone and the media plus fungi.
as §4, §5

C. tropicalis NCPF8760 = assay: as above; type: cell-based
Procedure: as §1, §2, §7, §4, §5

C. auris TDG1912 = assay: as above; type: cell-based; settings: Candidozyma auris, TDG1912; Table 4; 24 hours, ≥50% inhibition; read-out: MIC C. auris TDG1912
Procedure: as §1, §2, §7, §4, §5

Candida auris TDG1102 = assay: as above; type: cell-based; settings: Candidozyma auris, TDG1102; Table 4, extended panel; 24 hours, ≥50% inhibition; read-out: MIC Candida auris TDG1102
Procedure: as §1, §2, §7, §4, §5

Candida auris TDG2512 = assay: as above; type: cell-based; settings: Candidozyma auris, TDG2512; Table 4, extended panel; 24 hours, ≥50% inhibition; read-out: MIC Candida auris TDG2512
Procedure: as §1, §2, §7, §4, §5

[1] = NCPF8018, Table 4, common panel, 24 hours, ≥50% inhibition, read-out: MIC C. glabrata NCPF8018
[2] = NCPF3209, Table 4, common panel, 24 hours, ≥50% inhibition, read-out: MIC C. parapsilosis NCPF3209
[3] = NCPF3876, Table 4, common panel, 24 hours, ≥50% inhibition, read-out: MIC C. krusei NCPF3876
[4] = NCPF8760, Table 4, common panel, 24 hours, ≥50% inhibition, read-out: MIC C. tropicalis NCPF8760
[5] = NCPF8018, read-out: MIC C. Glabrata NCPF8018
[6] = NCPF3209, read-out: MIC C. Parapsilosis NCPF3209
[7] = NCPF3876, read-out: MIC C. Krusei NCPF3876
[8] = Candidozyma auris, 8977, Table 4, extended panel, 24 hours, ≥50% inhibition, read-out: MIC C. auris 8977
[9] = Candidozyma auris, 8971, Table 4, extended panel, 24 hours, ≥50% inhibition, read-out: MIC C. auris 8971
[10] = Candidozyma auris, 8984, Table 4, extended panel, 24 hours, ≥50% inhibition, read-out: MIC C. auris 8984
[11] = TDG2506, Table 4, extended panel, 24 hours, ≥50% inhibition, read-out: MIC Candida auris TDG2506
[12] = TDG2211, Table 4, extended panel, 24 hours, ≥50% inhibition, read-out: MIC Candida auris TDG2211
[13] = NCPF8760, read-out: MIC C. Tropicalis NCPF8760

| Structure (SMILES) | MIC (C. glabrata NCPF8018; [1]) | MIC (C. parapsilosis NCPF3209; [2]) | MIC (C. krusei NCPF3876; [3]) | MIC (C. albicans NCPF3281) | MIC (C. tropicalis NCPF8760; [4]) | MIC (C. auris TDG1912) | MIC (C. glabrata NCPF8018; [5]) | MIC (C. parapsilosis NCPF3209; [6]) | MIC (C. krusei NCPF3876; [7]) | MIC (C. auris 8977; [8]) | MIC (C. auris 8971; [9]) | MIC (C. auris 8984; [10]) | MIC (Candida auris TDG2506; [11]) | MIC (Candida auris TDG2211; [12]) | MIC (Candida auris TDG1102) | MIC (Candida auris TDG2512) | MIC (C. tropicalis NCPF8760; [13]) | other results |
| --- | --- | --- | --- | --- | --- | --- | --- | --- | --- | --- | --- | --- | --- | --- | --- | --- | --- | --- |
| OC(CN1CCC(Nc2ccc(OCc3ccccc3)cc2)CC1)(Cn1cncn1)c1ccc(F)cc1F (stereo not drawn) [Compound number 90, 1-(4-((4-(benzyloxy)phenyl)amino)piperidin-1-yl)-2-(2,4-difluorophenyl)-3-(1H-1,2,4-triazol-1-yl)propan-2-ol] | – | – | – | – | – | – | – | – | – | – | – | – | – | – | – | – | – | MIC (C. auris 8977; Candidozyma auris, 8977, read-out: MIC C. auris 8977): ≤ 0.003 µg/mL; MIC (C. auris 8971; Candidozyma auris, 8971, read-out: MIC C. auris 8971): ≤ 0.003 µg/mL; MIC (C. auris 8984; Candidozyma auris, 8984, read-out: MIC C. auris 8984): ≤ 0.003 µg/mL; MIC (Candida auris TDG2506; TDG2506, read-out: MIC C. auris 2506): ≤ 0.003 µg/mL; MIC (Candida auris TDG2211; TDG2211, read-out: MIC C. auris 2211): ≤ 0.003 µg/mL |
| OC(CN1CCC2(CCN(Cc3ccccc3)CC2)CC1)(Cn1cncn1)c1ccc(F)cc1F (stereo not drawn) [Example 1, 1-(9-Benzyl-3,9-diazaspiro[5.5]undecan-3-yl)-2-(2,4-difluorophenyl)-3-(1H-1,2,4-triazol-1-yl)propan-2-ol] | ≤ 0.125 µg/mL | 4 to 8 µg/mL (≈ 8.31 to 16.6 µM) | 1 to 2 µg/mL (≈ 2.08 to 4.15 µM) | 0.5 to 1 µg/mL (≈ 1.04 to 2.08 µM) | 0.25 to 1 µg/mL (≈ 0.519 to 2.08 µM) | ≤ 0.125 µg/mL | – | – | – | – | – | – | – | – | – | – | – | – |
| OC(CN1CCC2(CCN(c3ncc(F)cn3)CC2)C1)(Cn1cncn1)c1ccc(F)cc1F (stereo not drawn) [Example 7, 2-(2,4-Difluorophenyl)-1-(8-(5-fluoropyrimidin-2-yl)-2,8-diazaspiro[4.5]decan-2-yl)-3-(1H-1,2,4-triazol-1-yl)propan-2-ol] | 0.25 µg/mL (≈ 0.528 µM) | 0.004 µg/mL (≈ 0.00845 µM) | 0.06 µg/mL (≈ 0.127 µM) | < 0.008 µg/mL | 0.015 µg/mL (≈ 0.0317 µM) | 0.12 µg/mL (≈ 0.253 µM) | 0.25 µg/mL (≈ 0.528 µM) | 0.004 µg/mL (≈ 0.00845 µM) | 0.06 µg/mL (≈ 0.127 µM) | 0.002 µg/mL (≈ 0.00422 µM) | 0.03 µg/mL (≈ 0.0634 µM) | 0.12 µg/mL (≈ 0.253 µM) | 0.5 µg/mL (≈ 1.06 µM) | 0.125 µg/mL (≈ 0.264 µM) | 0.25 µg/mL (≈ 0.528 µM) | 0.03 µg/mL (≈ 0.0634 µM) | 0.015 µg/mL (≈ 0.0317 µM) | – |
| OC(CN1CCCCN(c2cnccn2)CC1)(Cn1cncn1)c1ccc(F)cc1F (stereo not drawn) [Example 17, 2-(2,4-Difluorophenyl)-1-(4-(pyrazin-2-yl)-1,4-diazocan-1-yl)-3-(1H-1,2,4-triazol-1-yl)propan-2-ol] | 0.12 µg/mL (≈ 0.279 µM) | ≤ 0.125 µg/mL | 4 µg/mL (≈ 9.31 µM) | ≤ 0.125 µg/mL | 4 to 8 µg/mL (≈ 9.31 to 18.6 µM) | 4 to 16 µg/mL (≈ 9.31 to 37.3 µM) | – | – | – | – | – | – | – | – | – | – | – | – |
| CC(C)COc1ccc(NC2CCN(CC(O)(Cn3cncn3)c3ccc(F)cc3F)CC2)cc1 (stereo not drawn) [Example 84] | 0.06 µg/mL (≈ 0.124 µM) | 0.00098 to 0.00195 µg/mL (≈ 0.00202 to 0.00402 µM) | 0.03 µg/mL (≈ 0.0618 µM) | 0.00195 µg/mL (≈ 0.00402 µM) | 0.125 µg/mL (≈ 0.257 µM) | – | 0.06 µg/mL (≈ 0.124 µM) | 0.00098 to 0.00195 µg/mL (≈ 0.00202 to 0.00402 µM) | 0.03 µg/mL (≈ 0.0618 µM) | 0.00391 µg/mL (≈ 0.00805 µM) | 0.00195 to 0.00391 µg/mL (≈ 0.00402 to 0.00805 µM) | 0.03 µg/mL (≈ 0.0618 µM) | 0.03 µg/mL (≈ 0.0618 µM) | 0.00098 to 0.00195 µg/mL (≈ 0.00202 to 0.00402 µM) | 0.0156 µg/mL (≈ 0.0321 µM) | 0.00195 to 0.00391 µg/mL (≈ 0.00402 to 0.00805 µM) | 0.125 µg/mL (≈ 0.257 µM) | – |
| COc1ccc(Oc2ccc(NC3CCN(CC(O)(Cn4cncn4)c4ccc(F)cc4F)CC3)cc2)cc1 (stereo not drawn) [Example 86] | 0.5 µg/mL (≈ 0.934 µM) | 0.00098 to 0.0078 µg/mL (≈ 0.00183 to 0.0146 µM) | 0.015 to 0.125 µg/mL (≈ 0.028 to 0.233 µM) | 0.0078 to 0.0156 µg/mL (≈ 0.0146 to 0.0291 µM) | 0.125 µg/mL (≈ 0.233 µM) | – | 0.5 µg/mL (≈ 0.934 µM) | 0.00098 to 0.0078 µg/mL (≈ 0.00183 to 0.0146 µM) | 0.015 to 0.125 µg/mL (≈ 0.028 to 0.233 µM) | 0.00098 to 0.0039 µg/mL (≈ 0.00183 to 0.00728 µM) | 0.00098 to 0.03 µg/mL (≈ 0.00183 to 0.056 µM) | 0.0078 to 0.125 µg/mL (≈ 0.0146 to 0.233 µM) | 0.0625 µg/mL (≈ 0.117 µM) | 0.0078 µg/mL (≈ 0.0146 µM) | 0.015 to 0.0625 µg/mL (≈ 0.028 to 0.117 µM) | 0.0078 µg/mL (≈ 0.0146 µM) | 0.125 µg/mL (≈ 0.233 µM) | – |
